Where “and” joins values, the source holds several entries; their conditions need not be identical. Equal entries are not always repeated. Numbers after ± are expanded uncertainties.
Experiments:
[1] = solid-solid phase transition pressure; conditions: Crystal 2, DTA
[2] = Molar enthalpy of transition or fusion; conditions: DSC

ClC12CC3CC(CC(C3)C1)C2 [1-chlorotricyclo[3.3.1.1(3,7)]decane]
Conditions | Molar enthalpy of transition or fusion [kcal/mol] | solid-solid phase transition pressure [kPa]
[1], 250.4 K | – | 400
[1], 254.3 K | – | 15100 ± 14000
[1], 260.5 K | – | 47600 ± 13000
[1], 265 K | – | 52500 ± 11000
[1], 270.3 K | – | 73100 ± 18000
[1], 274.4 K | – | 98800 ± 19000
[1], 278.5 K | – | 104200 ± 17000
[1], 284.7 K | – | 123100 ± 21000
[1], 292.2 K | – | 153000 ± 87000
[1], 292.3 K | – | 150200 ± 87000
[1], 298.4 K | – | 173600 ± 31000
[1], 300.5 K | – | 199600 ± 32000
[1], 306.2 K | – | 204000 ± 56000
[1], 307 K | – | 216500 ± 57000
[1], 311.5 K | – | 221600 ± 34000
[1], 313.1 K | – | 237900 ± 46000
[1], 313.7 K | – | 242200 ± 36000
[1], 315.2 K | – | 237700 ± 36000
[1], 317.3 K | – | 241000 ± 40000
[1], 319.5 K | – | 261500 ± 46000
[1], 320.7 K | – | 266800 ± 42000
[2], Crystal 1 | 1.01 ± 0.127 | –
[2], Crystal 2 | 1.42 ± 0.151 | –

Conditions | Triple point temperature [K]
Crystal 1, DSC | 438.6 ± 3.1
Crystal 2, DTA | 249.5 ± 2

BrC12CC3CC(CC(C3)C1)C2 [1-bromotricyclo[3.3.1.1(3,7)]decane]
Conditions | Molar enthalpy of transition or fusion [kcal/mol] | phase transition pressure
286.4 K, Crystal 3, DTA | – | 36100 ± 18000 kPa
292.5 K, Crystal 3, DTA | – | 71200 ± 17000 kPa
299.2 K, Crystal 3, DTA | – | 93300 ± 16000 kPa
310.5 K, Crystal 3, DTA | – | 122500 ± 24000 kPa
310.7 K, Crystal 2, DTA | – | 31100 ± 4700 kPa
311.5 K, Crystal 3, DTA | – | 117100 ± 24000 kPa
316.4 K, Crystal 3, DTA | – | 151900 ± 140000 kPa
316.8 K, Crystal 3, DTA | – | 133700 ± 140000 kPa
317.9 K, Crystal 2, DTA | – | 48600 ± 7300 kPa
318.5 K, Crystal 2, DTA | – | 49700 ± 7500 kPa
321.1 K, Crystal 2, DTA | – | 48800 ± 7300 kPa
322.6 K, Crystal 2, DTA | – | 50400 ± 7600 kPa
323 K, Crystal 2, DTA | – | 40400 ± 6100 kPa
323.1 K, Crystal 2, DTA | – | 50000 ± 7500 kPa
323.9 K, Crystal 2, DTA | – | 49000 ± 7400 kPa
324.1 K, Crystal 2, DTA | – | 51800 ± 7800 kPa
324.7 K, Crystal 2, DTA | – | 45700 ± 6900 kPa
325.2 K, Crystal 2, DTA | – | 50900 ± 7600 kPa
325.4 K, Crystal 3, DTA | – | 151800 ± 52000 kPa
327.5 K, Crystal 3, DTA | – | 184900 ± 30000 kPa
329.6 K, Crystal 2, DTA | – | 72800 ± 11000 kPa
329.9 K, Crystal 2, DTA | – | 72400 ± 11000 kPa
330.6 K, Crystal 3, DTA | – | 175700 ± 33000 kPa
332 K, Crystal 2, DTA | – | 74500 ± 11000 kPa
333.7 K, Crystal 3, DTA | – | 227100 ± 36000 kPa
335.1 K, Crystal 2, DTA | – | 73100 ± 11000 kPa
337 K, Crystal 3, DTA | – | 199700 ± 32000 kPa
337.3 K, Crystal 2, DTA | – | 100700 ± 15000 kPa
337.4 K, Crystal 2, DTA | – | 95400 ± 14000 kPa
337.8 K, Crystal 2, DTA | – | 101000 ± 15000 kPa
342.8 K, Crystal 3, DTA | – | 256100 ± 48000 kPa
343.5 K, Crystal 2, DTA | – | 118200 ± 18000 kPa
347.6 K, Crystal 2, DTA | – | 128300 ± 19000 kPa
348.3 K, Crystal 2, DTA | – | 126000 ± 19000 kPa
351.4 K, Crystal 2, DTA | – | 126900 ± 19000 kPa
355.9 K, Crystal 2, DTA | – | 138100 ± 21000 kPa
358.3 K, Crystal 2, DTA | – | 153800 ± 23000 kPa
359 K, Crystal 2, DTA | – | 154300 ± 23000 kPa
362.3 K, Crystal 2, DTA | – | 155500 ± 23000 kPa
363.9 K, Crystal 2, DTA | – | 177800 ± 27000 kPa
369 K, Crystal 2, DTA | – | 182300 ± 27000 kPa
369.7 K, Crystal 2, DTA | – | 189300 ± 28000 kPa
372.5 K, Crystal 2, DTA | – | 178800 ± 27000 kPa
374.4 K, Crystal 2, DTA | – | 205600 ± 31000 kPa
377.4 K, Crystal 2, DTA | – | 205400 ± 31000 kPa
381.6 K, Crystal 2, DTA | – | 204700 ± 31000 kPa and 234100 ± 35000 kPa
382.7 K, Crystal 2, DTA | – | 224800 ± 34000 kPa
383.4 K, Crystal 2, DTA | – | 232100 ± 35000 kPa
389.6 K, Crystal 2, DTA | – | 255000 ± 38000 kPa
390.9 K, Crystal 2, DTA | – | 255000 ± 38000 kPa
392.5 K, Crystal 2, DTA | – | 261500 ± 39000 kPa
404.9 K, Crystal 1, DTA | – | 25800 ± 3900 kPa
406 K, Crystal 1, DTA | – | 32500 ± 4900 kPa
411.8 K, Crystal 1, DTA | – | 61300 ± 9200 kPa
414.6 K, Crystal 1, DTA | – | 56200 ± 8400 kPa
415.8 K, Crystal 1, DTA | – | 78400 ± 12000 kPa
436.7 K, Crystal 1, DTA | – | 160000 ± 24000 kPa
[2], Crystal 1 | 0.777 ± 0.1 | –
[2], Crystal 2 | 1.6 ± 0.174 | –
[2], Crystal 3 | 0.301 ± 0.0382 | –

Conditions | Triple point temperature [K]
Crystal 1, DTA | 392 ± 3
Crystal 2, DTA | 310.8 ± 2
Crystal 3, DTA | 282.6 ± 2

Source: the NIST ThermoML archive (doi:10.1016/j.fluid.2017.07.020)
